Results taken from patent US20050009840A1 (SUGEN, INC., priority 2003, published 2005).

Each molecule was assayed against T1, HGFR (Homo sapiens, UniProt P08581) (assay: HGFR continuous-coupled spectrophotometric assay). Settings: at 50 nM; Table 5, library procedure 40; read-out: % inhibition (percent c-MET inhibition).
T1 construct: purchased Upstate 14-526
T1 sequence (P08581 974-1390 limits assumed): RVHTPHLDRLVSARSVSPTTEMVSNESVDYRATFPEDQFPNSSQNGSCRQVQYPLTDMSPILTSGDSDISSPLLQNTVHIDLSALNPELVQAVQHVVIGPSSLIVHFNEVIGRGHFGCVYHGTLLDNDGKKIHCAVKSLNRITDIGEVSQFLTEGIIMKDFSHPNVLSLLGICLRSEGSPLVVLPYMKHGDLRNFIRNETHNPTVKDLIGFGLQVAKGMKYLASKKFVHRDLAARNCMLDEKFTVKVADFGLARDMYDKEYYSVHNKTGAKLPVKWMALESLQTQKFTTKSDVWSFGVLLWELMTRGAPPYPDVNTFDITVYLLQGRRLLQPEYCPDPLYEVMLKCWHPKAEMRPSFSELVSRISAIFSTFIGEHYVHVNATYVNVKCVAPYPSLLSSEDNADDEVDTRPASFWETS
Format: biochemical
For Cc1cnc(CNC(=O)c2ccc(-c3cnc(N)c(OC(C)c4c(Cl)ccc(F)c4Cl)c3)cc2)cn1 [Example L-57], the inhibition at 0.05 µM was 76%.
CC(Oc1cc(-c2ccc(C(=O)NCC(F)(F)F)cc2)cnc1N)c1c(Cl)ccc(F)c1Cl [Example L-58] showed an inhibition at 0.05 µM of 78%.
Work on CC(Oc1cc(-c2ccc(C(=O)NCC3(O)CCCCC3)cc2)cnc1N)c1c(Cl)ccc(F)c1Cl [Example L-59] yielded an inhibition at 0.05 µM of 81%.
CC(Oc1cc(-c2ccc(C(=O)NCCCN3CCCC3=O)cc2)cnc1N)c1c(Cl)ccc(F)c1Cl [Example L-60] showed an inhibition at 0.05 µM of 83%.
CC(Oc1cc(-c2ccc(C(=O)NCCc3ccc(O)cc3)cc2)cnc1N)c1c(Cl)ccc(F)c1Cl [Example L-61] was tested, and the inhibition at 0.05 µM was 71%.
With CCN(CCO)C(=O)c1ccc(-c2cnc(N)c(OC(C)c3c(Cl)ccc(F)c3Cl)c2)cc1 [Example L-62] the inhibition at 0.05 µM was 94%.
Work on CC(Oc1cc(-c2ccc(C(=O)NCCN(C)C)cc2)cnc1N)c1c(Cl)ccc(F)c1Cl [Example L-64] yielded an inhibition at 0.05 µM of 85%.
In the case of CCN1CC(NC(=O)c2ccc(-c3cnc(N)c(OC(C)c4c(Cl)ccc(F)c4Cl)c3)cc2)CN1CC [Example L-65], the inhibition at 0.05 µM is reported as 79%.
In the case of CCCNC(=O)c1ccc(-c2cnc(N)c(OC(C)c3c(Cl)ccc(F)c3Cl)c2)cc1 [Example L-66], the inhibition at 0.05 µM is reported as 73%.
CC(C)CCNC(=O)c1ccc(-c2cnc(N)c(OC(C)c3c(Cl)ccc(F)c3Cl)c2)cc1 [Example L-67] showed an inhibition at 0.05 µM of 53%.
CCOC(=O)CN1CCN(C(=O)c2ccc(-c3cnc(N)c(OC(C)c4c(Cl)ccc(F)c4Cl)c3)cc2)CC1 [Example L-68] gave an inhibition at 0.05 µM of 70%.
For CC(Oc1cc(-c2ccc(C(=O)NCCc3c[nH]c4ccc(O)cc34)cc2)cnc1N)c1c(Cl)ccc(F)c1Cl [Example L-69], the inhibition at 0.05 µM was 66%.
CC(Oc1cc(-c2ccc(C(=O)NC3CCC3)cc2)cnc1N)c1c(Cl)ccc(F)c1Cl [Example L-70] showed an inhibition at 0.05 µM of 71%.
Work on CC(Oc1cc(-c2ccc(C(=O)N(C)C3CCN(C)C3)cc2)cnc1N)c1c(Cl)ccc(F)c1Cl [Example L-71] yielded an inhibition at 0.05 µM of 92%.
With CC(Oc1cc(-c2ccc(C(=O)NCC(C)(C)C)cc2)cnc1N)c1c(Cl)ccc(F)c1Cl [Example L-72] the inhibition at 0.05 µM was 62%.
For CC(Oc1cc(-c2ccc(C(=O)N3CCCCC3CN3CCCCC3)cc2)cnc1N)c1c(Cl)ccc(F)c1Cl [Example L-73], the inhibition at 0.05 µM was 90%.
C[C@H](Oc1cc(-c2ccc(C(=O)NC3C[C@@H]3c3ccccc3)cc2)cnc1N)c1c(Cl)ccc(F)c1Cl (stereo partly drawn) [Example L-74] was tested, and the inhibition at 0.05 µM was 65%.
Work on CC(Oc1cc(-c2ccc(C(=O)NCCc3c(Cl)cccc3Cl)cc2)cnc1N)c1c(Cl)ccc(F)c1Cl [Example L-75] yielded an inhibition at 0.05 µM of 53%.
CC(Oc1cc(-c2ccc(C(=O)N(C)CCc3ccncc3)cc2)cnc1N)c1c(Cl)ccc(F)c1Cl [Example L-76] showed an inhibition at 0.05 µM of 73%.
Work on CC(Oc1cc(-c2ccc(C(=O)NCc3ccc(OC(F)(F)F)cc3)cc2)cnc1N)c1c(Cl)ccc(F)c1Cl [Example L-77] yielded an inhibition at 0.05 µM of 54%.
Molecule CC(Oc1cc(-c2ccc(C(=O)N(C)CCC#N)cc2)cnc1N)c1c(Cl)ccc(F)c1Cl [Example L-78] has an inhibition at 0.05 µM of 68%.
Work on COCCNC(=O)c1ccc(-c2cnc(N)c(OC(C)c3c(Cl)ccc(F)c3Cl)c2)cc1 [Example L-79] yielded an inhibition at 0.05 µM of 73%.
Work on C[C@H](Oc1cc(-c2ccc(C(=O)N[C@@H](C)C3CCCCC3)cc2)cnc1N)c1c(Cl)ccc(F)c1Cl [Example L-80] yielded an inhibition at 0.05 µM of 60%.
CC(Oc1cc(-c2ccc(C(=O)NC3(CO)CCCC3)cc2)cnc1N)c1c(Cl)ccc(F)c1Cl [Example L-81] gave an inhibition at 0.05 µM of 67%.
CC(C)[C@@H](CO)NC(=O)c1ccc(-c2cnc(N)c(O[C@@H](C)c3c(Cl)ccc(F)c3Cl)c2)cc1 [Example L-82] gave an inhibition at 0.05 µM of 74%.
For C[C@H](Oc1cc(-c2ccc(C(=O)N[C@H](C)C3CCCCC3)cc2)cnc1N)c1c(Cl)ccc(F)c1Cl [Example L-83], the inhibition at 0.05 µM was 54%.
For C[C@H](Oc1cc(-c2ccc(C(=O)NC[C@@H]3CCCC[C@H]3O)cc2)cnc1N)c1c(Cl)ccc(F)c1Cl [Example L-84], the inhibition at 0.05 µM was 67%.
Work on CCOC(=O)C1CCN(C(=O)c2ccc(-c3cnc(N)c(OC(C)c4c(Cl)ccc(F)c4Cl)c3)cc2)CC1 [Example L-86] yielded an inhibition at 0.05 µM of 57%.
With CC(Oc1cc(-c2ccc(C(=O)NC3CCCCC3)cc2)cnc1N)c1c(Cl)ccc(F)c1Cl [Example L-87] the inhibition at 0.05 µM was 56%.
In the case of CC(Oc1cc(-c2ccc(C(=O)NCCCN3CCCC3)cc2)cnc1N)c1c(Cl)ccc(F)c1Cl [Example L-88], the inhibition at 0.05 µM is reported as 90%.
CC(Oc1cc(-c2ccc(C(=O)N3CCN(c4ccncc4)CC3)cc2)cnc1N)c1c(Cl)ccc(F)c1Cl [Example L-89] showed an inhibition at 0.05 µM of 96%.
CC(Oc1cc(-c2ccc(C(=O)N3CCN(CCN(C)C)CC3)cc2)cnc1N)c1c(Cl)ccc(F)c1Cl [Example L-90] gave an inhibition at 0.05 µM of 85%.
For C[C@H](Oc1cc(-c2ccc(C(=O)NC[C@H](O)c3ccccc3)cc2)cnc1N)c1c(Cl)ccc(F)c1Cl [Example L-91], the inhibition at 0.05 µM was 69%.
COc1cc(CCNC(=O)c2ccc(-c3cnc(N)c(OC(C)c4c(Cl)ccc(F)c4Cl)c3)cc2)ccc1O [Example L-92] gave an inhibition at 0.05 µM of 64%.
With CC(NC(=O)c1ccc(-c2cnc(N)c(OC(C)c3c(Cl)ccc(F)c3Cl)c2)cc1)c1ccc(O)cc1 [Example L-93] the inhibition at 0.05 µM was 62%.
For CC(Oc1cc(-c2ccc(C(=O)NCCc3cccc(C(F)(F)F)c3)cc2)cnc1N)c1c(Cl)ccc(F)c1Cl [Example L-94], the inhibition at 0.05 µM was 51%.
Work on CC(Oc1cc(-c2ccc(C(=O)NC[C@@H]3CCCO3)cc2)cnc1N)c1c(Cl)ccc(F)c1Cl (stereo partly drawn) [Example L-96] yielded an inhibition at 0.05 µM of 61%.
C[C@H](Oc1cc(-c2ccc(C(=O)NC[C@H]3CCCO3)cc2)cnc1N)c1c(Cl)ccc(F)c1Cl [Example L-97] gave an inhibition at 0.05 µM of 60%.
CC(Oc1cc(-c2ccc(C(=O)N(C)CC#N)cc2)cnc1N)c1c(Cl)ccc(F)c1Cl [Example L-99] showed an inhibition at 0.05 µM of 83%.
C[C@H](Oc1cc(-c2ccc(C(=O)NC[C@@H](C)O)cc2)cnc1N)c1c(Cl)ccc(F)c1Cl [Example L-101] showed an inhibition at 0.05 µM of 79%.
CNC(=O)c1ccc(-c2cnc(N)c(OC(C)c3c(Cl)ccc(F)c3Cl)c2)cc1 [Example L-102] was tested, and the inhibition at 0.05 µM was 82%.
Molecule CC(Oc1cc(-c2ccc(C(=O)N3CCOCC3)cc2)cnc1N)c1c(Cl)ccc(F)c1Cl [Example L-103] has an inhibition at 0.05 µM of 91%.
CC(Oc1cc(-c2ccc(C(=O)N(C)CCO)cc2)cnc1N)c1c(Cl)ccc(F)c1Cl [Example L-104] showed an inhibition at 0.05 µM of 89%.
Molecule CC(Oc1cc(-c2ccc(C(=O)NCCO)cc2)cnc1N)c1c(Cl)ccc(F)c1Cl [Example L-106] has an inhibition at 0.05 µM of 89%.
In the case of CC(=O)N[C@@H]1CCN(C(=O)c2ccc(-c3cnc(N)c(OC(C)c4c(Cl)ccc(F)c4Cl)c3)cc2)C1 (stereo partly drawn) [Example L-107], the inhibition at 0.05 µM is reported as 87%.
In the case of CCOCCCNC(=O)c1ccc(-c2cnc(N)c(OC(C)c3c(Cl)ccc(F)c3Cl)c2)cc1 [Example L-108], the inhibition at 0.05 µM is reported as 70%.
CC(Oc1cc(-c2ccc(C(=O)NCCC#N)cc2)cnc1N)c1c(Cl)ccc(F)c1Cl [Example L-109] gave an inhibition at 0.05 µM of 76%.
In the case of CC(C)NC(=O)c1ccc(-c2cnc(N)c(OC(C)c3c(Cl)ccc(F)c3Cl)c2)cc1 [Example L-110], the inhibition at 0.05 µM is reported as 71%.
Molecule CC(Oc1cc(-c2ccc(C(=O)NCCc3ccncc3)cc2)cnc1N)c1c(Cl)ccc(F)c1Cl [Example L-111] has an inhibition at 0.05 µM of 71%.
